Measured values published in patent publication US7977064B2, “Disheveled PDZ modulators” (Genentech, Inc., priority 2006, dated 2011).
Entries after “also recorded” stand apart in the source; their conditions may differ. No end group written: not given here.

How the values were obtained:
NCI-H1703 cells = assay: Alamar Blue cell viability and growth assay; assay type: cell-based, human
Method: Cells were seeded in black wall 96-well plate in triplicate and treated with various doses of peptide on Day 0 and were incubated at 37° C. in a humid incubator with 5% CO2. After 72 hours, Alamar Blue assay was performed.
Cells were seeded in black wall 96-well plate in triplicate and treated with 10 μM peptide or DMSO on Day 0, and the cell viability was measured by Alamar Blue assay after 24, 48 and 72 hours.
Cell viability assay: Cells were seeded in black wall 96-well plate in triplicate and treated with various doses of peptide on Day 0 and were incubated at 37° C. in a humid incubator with 5% CO2. After 72 hours, Alamar Blue assay was performed according to the instruction from manufacturer. For cell growth profile, the cells were seeded in black wall 96-well plate in triplicate and treated with 10 μM peptide or DMSO on Day 0, and cell viability was measured by Alamar Blue assay after 24, 48 and 72 hours.

[1] = system: Wnt-stimulated β-catenin signaling in NCI-H1703 cells; assay: TOPGLOW luciferase reporter assay in NCI-H1703 cells; assay type: cell-based, human
Method: (§1) NCI-H1703 cells were transfected with the reporter plasmid pTOPGLOW combined with pRL reporter. Cell extract was prepared and the luciferase activity was measured. The relative luciferase unit is TopGlow luciferase activity divided by Renila luciferase activity. The fold of activation is the RLU ratio between the Wnt3a-stimulated or non-stimulated cells.
(§2) Cell culture, transfection and peptide treatment: HEK293 and H1703 were propagated according to the instructions from American Type Culture Collection. HEK293 cells were transfected with FuGene6 according to the manufacturer's instructions (Roche Molecular Biochemicals) at cell confluence of 50%. H1703 cells were transfected with Lipofectamine according to manufacturer's instruction at cell confluence of 80%. Cells were treated with medium containing peptide (5 μM-40 μM) 24 hours after transfection, and were routinely harvested 24 hours after the peptide treatment for additional assays.
(§3) TOPGLOW assay: Cells were plated in 12-well plates. The TOPGLOW reporter plasmid was transfected transiently into cells as described above. TCF-mediated gene transcription was determined by pTOPGLOW luciferase activity, which was normalized to relative luciferase activities of pRL reporter (cotransfected internal control). All experiments were performed duplicated.

[2] = system: β-catenin protein level in HEK293S cells; assay: Western blot of β-catenin protein level in HEK293S cells; assay type: cell-based; conditions: 20 μM peptide, 24 hours, compared to DMSO and PEN
Method: HEK293S cells were treated with 20 μM DVLp and PEN for 24 hours. Cell lysate was prepared and subjected to SDS-PAGE. β-catenin was blotted by poly-clonal anti-β-catenin (Genentech, Inc., South San Francisco).
as §2
Western Blot: Harvested cells were lysed with SIC lysis buffer, the supernatant was subjected to SDS-PAGE, which was transferred, blocked and blotted with proper primary antibody by a standard western blot protocol. Fluorescence labeled secondary antibodies (Alexa goat anti-mouse or anti-rabbit) were added and the results were analyzed by Li-core™.

[3] = system: Wnt3a-stimulated β-catenin signaling in HEK293S cells; assay: TOPGLOW luciferase reporter assay in HEK293S cells; assay type: cell-based
Method: as §1, with “HEK293S cells” for “NCI-H1703 cells”, “unit (RLU)” for “unit”, “Wnt3a-stimulated and” for “Wnt3a-stimulated or”, “cells. Cells were treated with either 10 μM (light bar) or 20 μM (dark bar) peptide ligands.” for “cells.”
as §2, §3

Dvl2 = molecular target: T1, Dvl2 (Homo sapiens, UniProt O14641); assay: GST pull-down from HEK293S cell extract, blot with anti-Dvl2; assay type: binding; conditions: HEK293 cell lysate, glutathione Sepharose-4B beads
T1 construct: All three endogenous Dvl could be detected in crude cell lysate of HEK293, and could be pulled down by GST-Dvlpep; endogenous in cells; host or cells: HEK293S
T1 sequence (O14641 1-736): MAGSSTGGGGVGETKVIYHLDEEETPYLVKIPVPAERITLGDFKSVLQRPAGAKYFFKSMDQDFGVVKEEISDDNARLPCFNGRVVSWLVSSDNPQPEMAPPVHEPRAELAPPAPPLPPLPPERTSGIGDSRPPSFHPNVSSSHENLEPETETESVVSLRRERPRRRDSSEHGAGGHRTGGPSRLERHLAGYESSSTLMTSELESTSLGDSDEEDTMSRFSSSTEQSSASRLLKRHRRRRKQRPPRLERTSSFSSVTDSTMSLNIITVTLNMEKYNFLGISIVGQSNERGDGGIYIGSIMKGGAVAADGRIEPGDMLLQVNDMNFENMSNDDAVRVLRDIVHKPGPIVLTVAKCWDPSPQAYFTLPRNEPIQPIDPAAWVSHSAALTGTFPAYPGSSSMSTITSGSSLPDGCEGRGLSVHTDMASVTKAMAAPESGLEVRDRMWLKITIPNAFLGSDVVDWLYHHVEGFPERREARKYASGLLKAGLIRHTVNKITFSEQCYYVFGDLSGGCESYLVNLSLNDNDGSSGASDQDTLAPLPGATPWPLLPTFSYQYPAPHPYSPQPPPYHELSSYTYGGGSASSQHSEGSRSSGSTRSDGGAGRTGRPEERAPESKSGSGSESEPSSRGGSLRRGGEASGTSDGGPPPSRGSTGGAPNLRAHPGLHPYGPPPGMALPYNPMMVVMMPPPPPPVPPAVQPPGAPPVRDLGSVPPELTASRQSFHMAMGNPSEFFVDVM
Method: (§4) Cell lysate of HEK293S cell was prepared and the whole protein concentration was normalized to 1 mg/ml. GST or GST-DVLpep fusion protein was bound to glutathione Sepharose-4B. Beads carrying protein (2-10 μg) were incubated with cell extract of HEK293S cells overnight at 4° C. The beads were washed with washing buffer (PBS, 0.5% BSA, 0.1% Tween 20) for 10 times and resuspended in SDS sample buffer, incubated at 90° C. for 10 min and the supernatant was subjected to SDS-PAGE. The crude cell extract was also subjected to the same SDS-PAGE. Dvl proteins were blotted by anti-Dvl1, anti-Dvl2, and anti-Dvl3.
(§5) Pull-down Assays—GST or GST-DVLpep fusion protein (GST fused with peptide GGGKWYGWL (SEQ ID NO: 182) at its C-terminus) was bound to glutathione Sepharose-4B following standard protocols, and bound proteins were quantified by SDS-PAGE using known amounts of BSA as standards. Beads carrying protein (2-10 μg) were incubated with cell extract of HEK293S cell overnight at 4° C. The cell extracts were prepared by lysing the cell in SJC lysis buffer. The whole protein concentration was determined by BCA protein kit (Promega; Madison, Wis.) and normalized to 1 mg/ml. […] Bound proteins were blotted by anti-Dvl1, anti-Dvl2 and anti-Dvl3 and analyzed by Li-core™.

Dvl1 = molecular target: T2, Dvl1 (Homo sapiens, UniProt O14640); assay: GST pull-down from HEK293S cell extract, blot with anti-Dvl1; assay type: binding; conditions: HEK293 cell lysate, glutathione Sepharose-4B beads
T2 construct: All three endogenous Dvl could be detected in crude cell lysate of HEK293, and could be pulled down by GST-Dvlpep; endogenous in cells; host or cells: HEK293S
T2 sequence (O14640 1-695): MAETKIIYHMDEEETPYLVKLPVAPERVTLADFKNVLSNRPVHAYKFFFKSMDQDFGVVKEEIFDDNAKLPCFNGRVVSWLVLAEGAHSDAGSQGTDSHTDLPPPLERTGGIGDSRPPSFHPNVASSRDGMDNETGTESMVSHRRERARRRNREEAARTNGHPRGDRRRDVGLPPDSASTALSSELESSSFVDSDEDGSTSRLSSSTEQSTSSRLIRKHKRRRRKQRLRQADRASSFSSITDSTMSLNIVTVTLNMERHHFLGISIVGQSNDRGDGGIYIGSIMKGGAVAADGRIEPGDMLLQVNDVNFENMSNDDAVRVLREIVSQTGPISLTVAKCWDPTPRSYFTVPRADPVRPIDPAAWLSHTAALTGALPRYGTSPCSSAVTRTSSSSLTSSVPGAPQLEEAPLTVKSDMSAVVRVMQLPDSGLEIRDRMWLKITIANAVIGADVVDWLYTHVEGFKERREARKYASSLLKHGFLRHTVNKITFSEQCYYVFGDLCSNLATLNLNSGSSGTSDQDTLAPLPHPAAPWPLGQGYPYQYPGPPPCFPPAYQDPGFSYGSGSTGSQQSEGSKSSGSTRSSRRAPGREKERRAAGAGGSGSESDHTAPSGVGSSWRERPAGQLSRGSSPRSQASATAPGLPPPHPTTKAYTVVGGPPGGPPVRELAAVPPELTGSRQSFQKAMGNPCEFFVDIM
Method: as §4, §5

Dvl3 = molecular target: T3, Dvl3 (Homo sapiens, UniProt Q92997); assay: GST pull-down from HEK293S cell extract, blot with anti-Dvl3; assay type: binding; conditions: HEK293 cell lysate, glutathione Sepharose-4B beads
T3 construct: All three endogenous Dvl could be detected in crude cell lysate of HEK293, and could be pulled down by GST-Dvlpep; endogenous in cells; host or cells: HEK293S
T3 sequence (Q92997 1-716): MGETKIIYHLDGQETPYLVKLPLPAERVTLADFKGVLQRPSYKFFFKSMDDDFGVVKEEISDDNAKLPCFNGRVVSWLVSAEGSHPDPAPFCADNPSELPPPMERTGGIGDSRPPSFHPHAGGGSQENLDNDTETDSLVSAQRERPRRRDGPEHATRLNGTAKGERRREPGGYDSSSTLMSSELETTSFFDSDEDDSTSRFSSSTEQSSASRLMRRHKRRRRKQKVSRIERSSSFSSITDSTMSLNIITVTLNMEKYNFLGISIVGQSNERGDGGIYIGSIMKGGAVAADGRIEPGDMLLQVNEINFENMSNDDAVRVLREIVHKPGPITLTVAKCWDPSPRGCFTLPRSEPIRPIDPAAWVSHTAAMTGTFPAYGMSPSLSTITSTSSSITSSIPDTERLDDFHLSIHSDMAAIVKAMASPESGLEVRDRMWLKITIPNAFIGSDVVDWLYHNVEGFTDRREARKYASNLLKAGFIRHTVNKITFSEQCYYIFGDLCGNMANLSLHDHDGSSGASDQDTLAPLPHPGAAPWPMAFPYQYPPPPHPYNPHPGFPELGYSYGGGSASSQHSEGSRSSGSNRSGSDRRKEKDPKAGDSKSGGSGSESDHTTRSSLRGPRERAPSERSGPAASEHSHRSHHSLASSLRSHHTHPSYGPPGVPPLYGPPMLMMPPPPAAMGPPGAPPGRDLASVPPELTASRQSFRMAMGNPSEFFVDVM
Method: as §4, §5

Ac-RQIKIWFQNRRMKWKKKWYGWL [DVLp_C]
Cell growth profile (NCI-H1703 cells; NCI-H1703, 10 μM peptide, 24, 48 and 72 hours): much slower than that of DMSO or PEN-treated cells; also recorded: effectively suppressed the cell growth | Cell viability with Wnt3a stimulation (NCI-H1703 cells; NCI-H1703, 72 hours, peptide dose of 5 μM): lower viability of DVLp_C-treated cells compared to PEN-treated cells | Cell viability without Wnt3a stimulation (NCI-H1703 cells; NCI-H1703, 72 hours, peptide dose over 10 μM): much lower viability than PEN-treated cells | Effect on Wnt-stimulated β-catenin signaling / Tcf-stimulated transcriptional activity (TopGlow) [1]: inhibited by DVLp_C treatment significantly; also recorded: blocked the Wnt-stimulated increase in β-catenin signaling | β-catenin level in whole cell lysate upon Wnt3a stimulation [2]: significantly lower β-catenin levels; also recorded: reduced the Wnt-stimulated increase in β-catenin protein level | Effect on Wnt3a-stimulated transcriptional activity (TopGlow) ([3]; HEK293S cells, peptide up to 20 μM in medium): inhibited Wnt3a-stimulated transcriptional activity significantly; also recorded: significantly blocked the Wnt-stimulated increase in β-catenin signaling | Dose dependence of inhibition of Wnt-stimulated β-catenin signaling ([3]; HEK293S cells, two independent experiments): dose-dependent | Inhibition of Wnt3a-stimulated transcriptional activity ([3]; HEK293 cells, peptide 5-20 μM): about 50%

GST-Dvlpep: GST fused with peptide GGGKWYGWL (SEQ ID NO: 182) at its C-terminus ({GST}-GGGKWYGWL)
Pull-down of endogenous Dvl2 (Dvl2): pulled down | Pull-down of endogenous Dvl1 (Dvl1): pulled down | Pull-down of endogenous Dvl3 (Dvl3): pulled down
